Counter-ions that a name gives are not always drawn. Like-named read-outs stand apart in the source and are kept apart here.
Tests used:
[1] = target: T1, Human 5-HT4 receptor (5-HT4b) (Homo sapiens, UniProt Q13639); assay: Test Example 3: Human 5-HT4 receptor binding assay, membranes of CHO-K1 cells stably expressing 5-HT4b receptors (Table 99); settings: mean value of each group
T1 construct: expressed in transfected cells; membrane preparation
Protocol: To an assay tube were added 0.1 nM [^3H]-GR113808 {chemical name: [1-[2-(methylsulfonylamino) ethyl]-4-piperidinyl]methyl 1-methylindole-3-carboxylate}, receptor membrane preparations, and Hepes buffer (50 mM, pH 7.4, 4° C., 1 ml) containing test compounds or 30 μM serotonin; and the mixture was incubated at 37° C. for 30 minutes. On quenching the reaction, the mixture was rapidly filtered on whatman GF/B filter, which was presoaked in 0.1% polyethyleneimine for 1 hour, by using Brandel cell Harvester, and washed with ice-cooled 50 mM Tris-HCl (pH 7.7, 4 ml) three times. To the filter after filtration was added a liquid scintillator (Ecoscint), and then a radioactivity was determined by a liquid scintillation counter.
50% Inhibition concentrations (IC50) were determined from inhibition rates of test compounds to specific bindings which were obtained by subtracting nonspecific bindings from total binding amounts of [^3H]-GR113808.
Human 5-HT4 receptor membrane preparations were prepared from CHO-K^1 cells which stably express 5-HT4b receptors, and human 5-HT4 receptor binding assay was carried out in a similar manner as in the guinea pig 5-HT4 receptor binding assay. The following tables show results of serotonin 4 (5-HT4) receptor binding assay. In the following tables, the compounds used in the test are shown in numbers which correspond to the Example numbers above where the preparations of the compounds are described.

[2] = target: T2, human 5-HT4b receptor (Homo sapiens, UniProt Q13639); assay: Test Example 4: Serotonin 4 (5-HT4) receptor agonist activity assay, cAMP HTRF in CHO cells (Table 100); format: cell-based; settings: mean value; for Emax: CHO, 0.25 h, intrinsic activity, maximal activity of 5-HT defined as 100%, read-out: IA (%); for EC50: concentration showing 50% of IA
T2 construct: expressed in transfected cells; host or cells: CHO cells (G418 selection)
T2 sequence (Q13639 whole entry): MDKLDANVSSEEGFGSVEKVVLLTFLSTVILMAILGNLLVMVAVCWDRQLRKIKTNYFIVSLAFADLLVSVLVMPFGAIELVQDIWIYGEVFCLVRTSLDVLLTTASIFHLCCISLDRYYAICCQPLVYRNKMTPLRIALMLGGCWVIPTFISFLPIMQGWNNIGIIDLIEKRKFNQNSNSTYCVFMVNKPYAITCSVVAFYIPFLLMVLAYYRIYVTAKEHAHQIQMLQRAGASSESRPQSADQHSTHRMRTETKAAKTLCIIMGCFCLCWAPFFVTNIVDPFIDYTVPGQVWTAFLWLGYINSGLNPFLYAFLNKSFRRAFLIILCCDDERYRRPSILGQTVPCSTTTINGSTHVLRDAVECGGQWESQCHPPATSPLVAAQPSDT
Procedure, shortened: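 CHO cells expressing human 5-HT4b receptor, serum-reduced for 1–2 h, were suspended in Hanks/HEPES pH 7.4 and exposed to compound for 15 min at 31° C. cAMP detected by HTRF (cryptate/d2, 1 h RT, 620/665 nm). EC50 and intrinsic activity relative to maximal 5-HT response (10^−11 to 10^−7 M) set at 100%.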

[3] = target: T3, 5-HT4 receptor (Cavia porcellus, UniProt O70528); assay: Test Example 3: Guinea pig 5-HT4 receptor binding assay, [3H]-GR113808, striatum membranes (Table 98)
T3 construct: striatum was isolated which was cryopreserved at −80° C. until use; from tissue; host or cells: guinea pig (Slc-Hartley) striatum membranes
T3 sequence (O70528 whole entry): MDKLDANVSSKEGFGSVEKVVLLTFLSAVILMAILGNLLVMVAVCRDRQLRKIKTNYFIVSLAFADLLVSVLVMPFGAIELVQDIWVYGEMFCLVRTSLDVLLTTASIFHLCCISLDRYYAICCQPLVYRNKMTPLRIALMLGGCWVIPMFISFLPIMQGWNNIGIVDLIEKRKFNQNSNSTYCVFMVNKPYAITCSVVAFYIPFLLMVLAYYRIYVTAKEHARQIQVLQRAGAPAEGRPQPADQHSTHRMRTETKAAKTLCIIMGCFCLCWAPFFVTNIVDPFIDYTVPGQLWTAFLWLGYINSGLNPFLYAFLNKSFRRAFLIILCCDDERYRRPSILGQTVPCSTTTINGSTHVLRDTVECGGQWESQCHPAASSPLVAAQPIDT
Procedure, shortened: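 Striatal membranes from Slc-Hartley guinea pigs were incubated with 0.1 nM [3H]-GR113808 and test compounds in 50 mM Hepes pH 7.4 at 37° C for 30 min; nonspecific binding was defined with 30 μM serotonin. Bound radioactivity was collected by filtration, and IC50 was derived from inhibition of specific binding.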

[4] = Guinea pig 5-HT4 receptor binding assay, [3H]-GR113808, striatum membranes, mean value of each group, read-out: IC50

T1 sequence (Q13639 whole entry): as the sequence (Q13639 whole entry) above

SMILES | IC50 [1] | Emax [2] | EC50 [2] | IC50 [3, 4] | IC50 [3]
CC(C)c1nn(-c2noc(C3CC(NC4CCCOC4)C3)n2)c2c(F)cccc12 (stereo not drawn) [Example 600, N-(3-{3-[7-fluoro-3-(propan-2-yl)-1H-indazol-1-yl]-l,2,4-oxadiazol-5-yl}cyclobutyl)tetrahydro-2H-pyran-3-amine] | < 0.02 µM | – | – | – | –
CC(C)c1nn(-c2noc(C3CCN(C(C)(C)C(=O)O)CC3)n2)c2c(F)cccc12 [Example 401, 2-(4-{3-[7-fluoro-3-(propan-2-yl)-1H-indazol-1-yl]-1,2,4-oxadiazol-5-yl}piperidin-1-yl)-2-methylpropanoic acid hydrochloride] | 0.296 µM | – | – | – | –
CC(=O)N1CCC(N2CC(Cc3nc(-n4nc(C(C)C)c5cccc(F)c54)no3)C2)CC1 [Example 416] | 0.0274 µM | – | – | – | –
CC(C)c1nn(-c2noc(C3CC(NC4CCOC4)C3)n2)c2c(F)cccc12 (stereo not drawn) [Example 607, N-(3-{3-[7-fluoro-3-(propan-2-yl)-1H-indazol-1-yl]-1,2,4-oxadiazol-5-yl)cyclobutyl)tetrahydrofuran-3-amine] | < 0.02 µM | – | – | – | –
CC(C)c1nn(-c2noc(C3CCN([C@H]4C[C@H]5CC[C@@H](C4)N5C(=O)CO)CC3)n2)c2c(F)cccc12 [Example 532, 1-[(3-endo)-3-(4-{3-[7-fluoro-3-(propan-2-yl)-1H-indazol-1-yl]-1,2,4-oxadiazol-5-yl}piperidin-1-yl)-8-azabicyclo[3.2.1]oct-8-yl]-2-hydroxyethanone] | – | 99% | 0.005 µM | – | < 0.02 µM
CCc1nn(-c2noc(C3CCN(C[C@H]4CCN(C(C)=O)C4)CC3)n2)c2c(F)cccc12 [Example 209, 1-[(3R)-3-({4-[3-(3-ethyl-7-fluoro-1H-indazol-1-yl)-1,2,4-oxadiazol-5-yl]piperidin-1-yl}methyl)pyrrolidin-1-yl]ethanone hydrochloride] | – | 79.1% | 0.0037 µM | < 0.02 µM | –
CCc1nn(-c2noc(C3CCN(C4CCN(C(=O)OC)CC4)CC3)n2)c2c(F)c(F)ccc12 [Example 459, methyl 4-[3-(3-ethyl-6,7-difluoro-1H-indazol-1-yl)-1,2,4-oxadiazol-5-yl]-1,4′-bipiperidine-1′-carboxylate trifluoroacetate] | – | 68.2% | 0.0076 µM | < 0.02 µM | –
CC(C)c1nn(-c2noc(CCCN3CCCCC3)n2)c2c(F)cccc12 [Example 394, 7-fluoro-1-{5-[3-(piperidin-1-yl)propyl]-1,2,4-oxadiazol-3-yl}-3-(propan-2-yl)-1H-indazole] | – | 101% | 0.0031 µM | < 0.02 µM | –
CCc1nn(-c2noc(C3CCN(C4CCOCC4)CC3)n2)c2c(F)c(F)ccc12 [Example 448, 3-ethyl-6,7-difluoro-1-{5-[1-(tetrahydro-2H-pyran-4-yl)piperidin-4-yl]-1,2,4-oxadiazol-3-yl}-1H-indazole trifluoroacetate] | – | 57.5% | 0.0089 µM | < 0.02 µM | –
CCc1nn(-c2noc(C3CCN(CC4CN(C(=O)CO)C4)CC3)n2)c2c(F)cccc12 [compound 250, 1-[3-({4-[3-(3-ethyl-7-fluoro-1H-indazol-1-yl)-1,2,4-oxadiazol-5-yl]piperidin-1-yl}methyl)azetidin-1-yl]-2-hydroxyethanone] | – | 79.7% | 0.0035 µM | < 0.02 µM | –
COC(=O)N1CCC(N2CCC(c3nc(-n4nc(C(C)C)c5ccc(F)c(F)c54)no3)CC2)CC1 [Example 463, methyl 4-{3-[6,7-difluoro-3-(propan-2-yl)-1H-indazol-1-yl]-1,2,4-oxadiazol-5-yl}-1,4′-bipiperidine 1′-carboxylate trifluoroacetate] | – | 64.4% | 0.0083 µM | < 0.02 µM | –
CCc1nn(-c2noc(C3CCN(C[C@H]4CCN(S(C)(=O)=O)C4)CC3)n2)c2c(F)cccc12 [Example 216, 3-ethyl-7-fluoro-1-[5-(1-{[(3R)-1-(methylsulfonyl)pyrrolidin-3-yl]methyl}piperidin-4-yl)-1,2,4-oxadiazol-3-yl]-1H-indazole] | – | 62.3% | 0.0046 µM | < 0.02 µM | –
CC(=O)N1CCC(CN2CCC(c3nc(-n4nc(C(C)C)c5ccccc54)no3)CC2)CC1 [Example 475, 1-{4-[(4-{3-[3-(propan-2-yl)-1H-indazol-1-yl]-1,2,4-oxadiazol-5-yl}piperidin-1-yl)methyl]piperidin-1-yl}ethanone trifluoroacetate] | – | 61% | 0.0136 µM | 0.0679 µM | –

Continued, in another order:

IC50 [1] | Emax [2] | EC50 [2] | IC50 [3, 4] | SMILES | IC50 [3]
0.136 µM | – | – | – | Cc1cccc2c1c(C(C)C)nn2-c1noc(C2CCN(C3CCC3)CC2)n1 [Example 423, 1-[5-(1-cyclobutylpiperidin-4-yl)-1,2,4-oxadiazol-3-yl]-4-methyl-3-(propan-2-yl)-1H-indazole] | –
0.442 µM | – | – | – | CC(=O)N1CCC(N2CCC(c3nc(-n4nc(C(C)C)c5cccc(F)c54)no3)CC2C)CC1 (stereo not drawn) [Example 418, 1-(4-{3-[7-fluoro-3-(propan-2-yl)-1H-indazol-1-yl]-1,2,4-oxadiazol-5-yl}-2-methyl-1,4′-bipiperidin-1′-yl}ethanone] | –
– | 52.1% | 0.0132 µM | < 0.02 µM | CCc1nn(-c2noc(C3CCN(C(C)C)CC3)n2)c2c(F)c(F)ccc12 [Example 445, 3-ethyl-6,7-difluoro-1-{5-[1-(propan-2-yl)piperidin-4-yl]-1,2,4-oxadiazol-3-yl}-1H-indazole trifluoroacetate] | –
– | 68.6% | 0.005 µM | < 0.02 µM | CCc1nn(-c2noc(C3CCN(C[C@H]4CCN(C(=O)COC)C4)CC3)n2)c2c(F)cccc12 [Example 210, 1-[(3R)-3-({4-[3-(3-ethyl-7-fluoro-1H-indazol-1-yl)-1,2,4-oxadiazol-5-yl]piperidin-1-yl}methyl)pyrrolidin-1-yl]-2-methoxyethanone hydrochloride] | –
– | 56.6% | 0.0211 µM | < 0.02 µM | CCc1nn(-c2noc(C3CCN(CC4CCN(C(=O)CO)CC4)CC3)n2)c2c(F)cccc12 [compound 246, 1-[4-({4-[3-(3-ethyl-7-fluoro-1H-indazol-1-yl)-1,2,4-oxadiazol-5-yl]piperidin-1-yl}methyl)piperidin-1-yl]-2-hydroxyethanone] | –
– | 71.8% | 0.0011 µM | < 0.02 µM | CCc1nn(-c2noc(C3CCN(C[C@@H]4CCN(S(C)(=O)=O)C4)CC3)n2)c2c(F)cccc12 [Example 203, 3-ethyl-7-fluoro-1-[5-(1-{[(3S)-1-(methylsulfonyl)pyrrolidin-3-yl]methyl}piperidin-4-yl)-1,2,4-oxadiazol-3-yl]-1H-indazole] | –
– | 92.4% | 0.0048 µM | < 0.02 µM | COC(=O)N1CC(CN2CCC(c3nc(-n4nc(C(C)C)c5cccc(F)c54)no3)CC2)C1 [Example 220, methyl 3-[(4{3-[7-fluoro-3-(propan-2-yl)-1H-indazol-1-yl]-1,2,4-oxadiazol-5-yl}piperidin-1-yl)methyl]azetidine-1-carboxylate hydrochloride] | –
– | 72.5% | 0.0069 µM | 0.0811 µM | CC(=O)N1CC(CN2CCC(c3nc(-n4nc(C(C)C)c5ccccc54)no3)CC2)C1 [Example 467, 1-{3-[(4-{3-[3-(propan-2-yl)-1H-indazol-1-yl]-1,2,4-oxadiazol-5-yl}piperidin-1-yl)methyl]azetidin-1-yl}ethanone trifluoroacetate] | –
– | 97% | 0.0031 µM | < 0.02 µM | CC(C)c1nn(-c2noc(C3CCN(C4CCN(C(=O)CO)CC4C)CC3)n2)c2c(F)cccc12 (stereo not drawn) [Example 530, 1-(4-{3-[7-fluoro-3-(propan-2-yl)-1H-indazol-1-yl]-1,2,4-oxadiazol-5-yl}-3′-methyl-1,4′-bipiperidin-1′-yl)-2-hydroxyethanone] | –
– | 39% | 0.0058 µM | < 0.02 µM | CCc1nn(-c2noc(C3CCN(C[C@@H]4CCN(C(=O)COC)C4)CC3)n2)c2c(F)cccc12 [Example 202, 1-[(3S)-3-({4-[3-(3-ethyl-7-fluoro-1H-indazol-1-yl)-1,2,4-oxadiazol-5-yl]piperidin-1-yl}methyl)pyrrolidin-1-yl]-2-methoxyethanone] | –
– | 84% | 0.0039 µM | < 0.02 µM | CC(=O)N1CCC(N2CC[C@@H](Cc3nc(-n4nc(C(C)C)c5cccc(F)c54)no3)C2)CC1 [Example 507, 1-{4-[(3S)-3-({3-[7-fluoro-3-(propan-2-yl)-1H-indazol-1-yl]-1,2,4-oxadiazol-5-yl}methyl)pyrrolidin-1-yl]piperidin-1-yl}ethanone] | –

From patent US20140057895A1, “INDAZOLE- AND PYRROLOPYRIDINE-DERIVATIVE AND PHARMACEUTICAL USE THEREOF” (priority 2011, published 2014)
